4 compounds from ChEMBL document CHEMBL1151121, “1H-nmr analysis of herbimycins and dihydro-herbimycins” (1988) can be followed below.

Molecules are shown by their SMILES. In brackets after ≈: the same amount, converted by molar mass.

One assay concerns KB. The assay is described as follows: Cytotoxicity against human KB cells. The assay is classed as functional. To be noted: read-out: ED50 (the source's name).
The subject of a further assay is P388. The assay is described as follows: Cytotoxicity against mouse P388 cells. In kind it is functional. The following applies: read-out: ED50 (the source's name).

For `CO[C@H]1/C=C\C=C(/C)C(=O)Nc2cc(O)cc(c2O)C[C@@H](C)C[C@H](OC)[C@H](O)[C@@H](C)/C=C(\C)[C@@H]1OC(N)=O`, the EC50 in the assay on KB amounted to 3.49 µg/mL (≈ 6.55 µM); in the assay on P388, 0.34 µg/mL (≈ 0.638 µM).
`CO[C@H]1[C@@H](OC)C[C@H](C)[C@@H](OC)c2cc(O)cc(c2O)NC(=O)/C(C)=C/C=C\[C@H](OC)[C@@H](OC(N)=O)/C(C)=C/[C@@H]1C` [DIHYDRO-HERBIMYCIN A]: the results for the EC50 in the assay with KB and in the assay with P388 were 0.3 µg/mL (≈ 0.52 µM) and 0.022 µg/mL (≈ 0.0381 µM), respectively.
Consider `CO[C@H]1/C=C\C=C(/C)C(=O)NC2=CC(=O)C=C(C2=O)[C@H](OC)[C@@H](C)C[C@H](OC)[C@H](O)[C@@H](C)/C=C(\C)[C@@H]1OC(N)=O` [HERBIMYCIN C], for which the EC50 with KB was 0.12 µg/mL (≈ 0.214 µM); with P388 it was 0.17 µg/mL (≈ 0.303 µM).
With `CO[C@H]1[C@@H](OC)C[C@H](C)[C@@H](OC)C2=CC(=O)C=C(NC(=O)/C(C)=C/C=C/[C@H](OC)[C@@H](OC(N)=O)/C(C)=C/[C@@H]1C)C2=O` [HERBIMYCIN], the EC50 in the assay with KB came to 0.12 µg/mL (≈ 0.209 µM); in the assay on P388 it was 0.0051 µg/mL (≈ 0.00887 µM).
